# The kinase profiling compilation of Christmann-Franck et al. (2016)
# Key:
# Test in all cases: radiometric filter-binding kinase assay, Kinase HotSpot
# Conditions in all cases: compound 0.5 µM; ATP 10 µM
# [1] = target: MST4 (human) (UniProt Q9P289)
# [2] = target: NEK7 (human) (UniProt Q8TDX7)
# [3] = target: CSNK1D (human) (UniProt P48730)
# [4] = target: CDK7 CCNH MNAT1 (human) (UniProt P50613+P51948+P51946)
# [5] = target: STK11 (human) (UniProt Q15831)
# [6] = target: PRKCZ (human) (UniProt Q05513)
# [7] = target: PRKCB1 (human) (UniProt P05771)
# [8] = target: INSRR (human) (UniProt P14616)
# [9] = target: HIPK2 (human) (UniProt Q9H2X6)
# [10] = target: CDK4 CCND3 (human) (UniProt P30281+P11802)
# [11] = target: PLK1 (human) (UniProt P53350)
# [12] = target: MAPK12 (human) (UniProt P53778)
# [13] = target: FGFR1 (human) (UniProt P11362)
# [14] = target: PAK4 (human) (UniProt O96013)
# [15] = target: WNK2 (human) (UniProt Q9Y3S1)
# [16] = target: EPHA7 (human) (UniProt Q15375)
# [17] = target: RPS6KB2 (human) (UniProt Q9UBS0)
# [18] = target: YES1 (human) (UniProt P07947)
# [19] = target: SRC (human) (UniProt P12931)
# [20] = target: HCK (human) (UniProt P08631)
# [21] = target: BMX (human) (UniProt P51813)
# [22] = target: MARK4 (human) (UniProt Q96L34)
# [23] = target: DDR2 (human) (UniProt Q16832)
# [24] = target: BLK (human) (UniProt P51451)
# [25] = target: GSG2 (human) (UniProt Q8TF76)
# [26] = target: RPS6KA5 KD2 (human) (UniProt O75582)
# [27] = target: TGFBR2 (human) (UniProt P37173)
# [28] = target: FGFR3 (human) (UniProt P22607)
# [29] = target: EPHA8 (human) (UniProt P29322)
# [30] = target: CDK5 CDK5R1 p25 (human) (UniProt Q00535+Q15078)
# [31] = target: STK17A (human) (UniProt Q9UEE5)
# [32] = target: ZAP70 (human) (UniProt P43403)
# [33] = target: IKBKE (human) (UniProt Q14164)
# [34] = target: GRK4 (human) (UniProt P32298)
# [35] = target: DMPK (human) (UniProt Q09013)
# [36] = target: SGK2 (human) (UniProt Q9HBY8)
# [37] = target: AKT2 (human) (UniProt P31751)
# [38] = target: TAOK1 (human) (UniProt Q7L7X3)
# [39] = target: PKN2 (human) (UniProt Q16513)
# [40] = target: WEE1 (human) (UniProt P30291)
# [41] = target: DCLK2 (human) (UniProt Q8N568)
# [42] = target: MAPK13 (human) (UniProt O15264)
# Sequence of STK17A (human) (Q9UEE5 whole entry, looked up): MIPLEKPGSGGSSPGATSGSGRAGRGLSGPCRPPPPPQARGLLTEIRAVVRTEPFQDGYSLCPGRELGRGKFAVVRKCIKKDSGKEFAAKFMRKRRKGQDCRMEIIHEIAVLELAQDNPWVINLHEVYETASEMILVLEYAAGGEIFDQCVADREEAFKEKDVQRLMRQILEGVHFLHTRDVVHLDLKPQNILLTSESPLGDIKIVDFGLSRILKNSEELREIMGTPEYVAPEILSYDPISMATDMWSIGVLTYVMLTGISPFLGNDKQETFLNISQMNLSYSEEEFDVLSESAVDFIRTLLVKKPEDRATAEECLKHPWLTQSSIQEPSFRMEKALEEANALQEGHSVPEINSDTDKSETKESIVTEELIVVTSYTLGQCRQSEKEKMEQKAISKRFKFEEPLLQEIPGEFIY
# Sequence of EPHA8 (human) (P29322 whole entry, looked up): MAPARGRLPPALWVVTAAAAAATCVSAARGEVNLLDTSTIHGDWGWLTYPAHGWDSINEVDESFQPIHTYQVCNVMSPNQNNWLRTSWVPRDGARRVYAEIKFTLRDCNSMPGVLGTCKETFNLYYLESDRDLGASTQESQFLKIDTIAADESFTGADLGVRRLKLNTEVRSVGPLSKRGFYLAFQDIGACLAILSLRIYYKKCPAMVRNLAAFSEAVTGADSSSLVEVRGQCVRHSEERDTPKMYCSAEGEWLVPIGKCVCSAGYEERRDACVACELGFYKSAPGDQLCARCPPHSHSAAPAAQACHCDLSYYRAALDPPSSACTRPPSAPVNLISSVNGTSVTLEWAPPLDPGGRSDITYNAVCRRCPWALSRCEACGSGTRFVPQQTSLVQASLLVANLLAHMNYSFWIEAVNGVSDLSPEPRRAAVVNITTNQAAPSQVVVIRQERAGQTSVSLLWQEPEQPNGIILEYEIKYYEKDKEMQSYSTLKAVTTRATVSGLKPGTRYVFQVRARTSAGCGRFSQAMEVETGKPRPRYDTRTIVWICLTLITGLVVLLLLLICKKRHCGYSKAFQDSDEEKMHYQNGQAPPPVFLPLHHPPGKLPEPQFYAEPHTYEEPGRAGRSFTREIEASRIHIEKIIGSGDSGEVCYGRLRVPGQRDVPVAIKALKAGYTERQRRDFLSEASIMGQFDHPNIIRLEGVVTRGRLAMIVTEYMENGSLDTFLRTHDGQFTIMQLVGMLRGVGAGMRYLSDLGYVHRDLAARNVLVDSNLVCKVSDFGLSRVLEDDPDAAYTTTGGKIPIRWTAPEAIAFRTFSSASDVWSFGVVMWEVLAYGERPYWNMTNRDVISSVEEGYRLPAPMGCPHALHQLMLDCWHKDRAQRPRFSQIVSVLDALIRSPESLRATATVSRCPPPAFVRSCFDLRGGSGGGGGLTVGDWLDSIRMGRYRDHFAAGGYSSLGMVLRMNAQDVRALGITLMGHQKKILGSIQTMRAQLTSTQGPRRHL
# Sequence of PRKCZ (human) (Q05513 whole entry, looked up): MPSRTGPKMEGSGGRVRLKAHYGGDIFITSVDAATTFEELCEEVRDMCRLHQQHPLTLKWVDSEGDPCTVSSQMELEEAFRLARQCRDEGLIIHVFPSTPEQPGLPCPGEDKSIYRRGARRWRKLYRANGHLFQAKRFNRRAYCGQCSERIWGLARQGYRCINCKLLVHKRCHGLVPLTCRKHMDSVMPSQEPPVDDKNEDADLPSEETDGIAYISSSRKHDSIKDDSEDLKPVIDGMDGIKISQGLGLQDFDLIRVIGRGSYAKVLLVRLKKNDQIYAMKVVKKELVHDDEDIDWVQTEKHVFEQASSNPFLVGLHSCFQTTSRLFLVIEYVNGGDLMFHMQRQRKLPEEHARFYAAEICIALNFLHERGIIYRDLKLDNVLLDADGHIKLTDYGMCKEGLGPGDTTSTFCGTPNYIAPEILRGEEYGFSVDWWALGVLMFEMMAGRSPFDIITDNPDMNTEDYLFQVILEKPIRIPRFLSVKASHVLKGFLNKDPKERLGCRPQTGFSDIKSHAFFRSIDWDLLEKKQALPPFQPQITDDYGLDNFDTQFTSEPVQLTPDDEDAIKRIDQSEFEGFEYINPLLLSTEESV
# Sequence of RPS6KA5 KD2 (human) (O75582 whole entry, looked up): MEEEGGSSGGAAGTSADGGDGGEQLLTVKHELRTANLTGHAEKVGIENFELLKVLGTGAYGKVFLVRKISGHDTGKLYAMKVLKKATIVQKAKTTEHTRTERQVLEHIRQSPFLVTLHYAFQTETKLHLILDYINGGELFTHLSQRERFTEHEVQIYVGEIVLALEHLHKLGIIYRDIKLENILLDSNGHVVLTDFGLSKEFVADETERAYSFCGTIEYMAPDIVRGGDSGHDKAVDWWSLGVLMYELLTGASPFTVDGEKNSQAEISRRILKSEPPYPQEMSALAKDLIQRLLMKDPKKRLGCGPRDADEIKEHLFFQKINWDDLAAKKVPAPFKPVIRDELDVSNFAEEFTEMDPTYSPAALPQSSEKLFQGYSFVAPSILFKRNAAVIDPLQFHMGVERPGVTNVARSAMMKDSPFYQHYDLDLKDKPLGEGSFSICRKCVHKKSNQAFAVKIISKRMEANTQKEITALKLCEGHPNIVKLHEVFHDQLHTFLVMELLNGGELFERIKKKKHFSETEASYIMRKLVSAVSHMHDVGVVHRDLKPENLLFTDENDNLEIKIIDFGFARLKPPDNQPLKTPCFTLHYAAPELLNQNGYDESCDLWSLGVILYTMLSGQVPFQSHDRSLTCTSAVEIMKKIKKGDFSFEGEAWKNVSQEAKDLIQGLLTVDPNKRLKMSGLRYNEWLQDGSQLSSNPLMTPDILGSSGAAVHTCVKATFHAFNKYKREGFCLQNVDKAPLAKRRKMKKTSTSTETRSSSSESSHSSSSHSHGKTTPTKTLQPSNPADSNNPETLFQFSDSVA
# Sequence of WNK2 (human) (Q9Y3S1 whole entry, looked up): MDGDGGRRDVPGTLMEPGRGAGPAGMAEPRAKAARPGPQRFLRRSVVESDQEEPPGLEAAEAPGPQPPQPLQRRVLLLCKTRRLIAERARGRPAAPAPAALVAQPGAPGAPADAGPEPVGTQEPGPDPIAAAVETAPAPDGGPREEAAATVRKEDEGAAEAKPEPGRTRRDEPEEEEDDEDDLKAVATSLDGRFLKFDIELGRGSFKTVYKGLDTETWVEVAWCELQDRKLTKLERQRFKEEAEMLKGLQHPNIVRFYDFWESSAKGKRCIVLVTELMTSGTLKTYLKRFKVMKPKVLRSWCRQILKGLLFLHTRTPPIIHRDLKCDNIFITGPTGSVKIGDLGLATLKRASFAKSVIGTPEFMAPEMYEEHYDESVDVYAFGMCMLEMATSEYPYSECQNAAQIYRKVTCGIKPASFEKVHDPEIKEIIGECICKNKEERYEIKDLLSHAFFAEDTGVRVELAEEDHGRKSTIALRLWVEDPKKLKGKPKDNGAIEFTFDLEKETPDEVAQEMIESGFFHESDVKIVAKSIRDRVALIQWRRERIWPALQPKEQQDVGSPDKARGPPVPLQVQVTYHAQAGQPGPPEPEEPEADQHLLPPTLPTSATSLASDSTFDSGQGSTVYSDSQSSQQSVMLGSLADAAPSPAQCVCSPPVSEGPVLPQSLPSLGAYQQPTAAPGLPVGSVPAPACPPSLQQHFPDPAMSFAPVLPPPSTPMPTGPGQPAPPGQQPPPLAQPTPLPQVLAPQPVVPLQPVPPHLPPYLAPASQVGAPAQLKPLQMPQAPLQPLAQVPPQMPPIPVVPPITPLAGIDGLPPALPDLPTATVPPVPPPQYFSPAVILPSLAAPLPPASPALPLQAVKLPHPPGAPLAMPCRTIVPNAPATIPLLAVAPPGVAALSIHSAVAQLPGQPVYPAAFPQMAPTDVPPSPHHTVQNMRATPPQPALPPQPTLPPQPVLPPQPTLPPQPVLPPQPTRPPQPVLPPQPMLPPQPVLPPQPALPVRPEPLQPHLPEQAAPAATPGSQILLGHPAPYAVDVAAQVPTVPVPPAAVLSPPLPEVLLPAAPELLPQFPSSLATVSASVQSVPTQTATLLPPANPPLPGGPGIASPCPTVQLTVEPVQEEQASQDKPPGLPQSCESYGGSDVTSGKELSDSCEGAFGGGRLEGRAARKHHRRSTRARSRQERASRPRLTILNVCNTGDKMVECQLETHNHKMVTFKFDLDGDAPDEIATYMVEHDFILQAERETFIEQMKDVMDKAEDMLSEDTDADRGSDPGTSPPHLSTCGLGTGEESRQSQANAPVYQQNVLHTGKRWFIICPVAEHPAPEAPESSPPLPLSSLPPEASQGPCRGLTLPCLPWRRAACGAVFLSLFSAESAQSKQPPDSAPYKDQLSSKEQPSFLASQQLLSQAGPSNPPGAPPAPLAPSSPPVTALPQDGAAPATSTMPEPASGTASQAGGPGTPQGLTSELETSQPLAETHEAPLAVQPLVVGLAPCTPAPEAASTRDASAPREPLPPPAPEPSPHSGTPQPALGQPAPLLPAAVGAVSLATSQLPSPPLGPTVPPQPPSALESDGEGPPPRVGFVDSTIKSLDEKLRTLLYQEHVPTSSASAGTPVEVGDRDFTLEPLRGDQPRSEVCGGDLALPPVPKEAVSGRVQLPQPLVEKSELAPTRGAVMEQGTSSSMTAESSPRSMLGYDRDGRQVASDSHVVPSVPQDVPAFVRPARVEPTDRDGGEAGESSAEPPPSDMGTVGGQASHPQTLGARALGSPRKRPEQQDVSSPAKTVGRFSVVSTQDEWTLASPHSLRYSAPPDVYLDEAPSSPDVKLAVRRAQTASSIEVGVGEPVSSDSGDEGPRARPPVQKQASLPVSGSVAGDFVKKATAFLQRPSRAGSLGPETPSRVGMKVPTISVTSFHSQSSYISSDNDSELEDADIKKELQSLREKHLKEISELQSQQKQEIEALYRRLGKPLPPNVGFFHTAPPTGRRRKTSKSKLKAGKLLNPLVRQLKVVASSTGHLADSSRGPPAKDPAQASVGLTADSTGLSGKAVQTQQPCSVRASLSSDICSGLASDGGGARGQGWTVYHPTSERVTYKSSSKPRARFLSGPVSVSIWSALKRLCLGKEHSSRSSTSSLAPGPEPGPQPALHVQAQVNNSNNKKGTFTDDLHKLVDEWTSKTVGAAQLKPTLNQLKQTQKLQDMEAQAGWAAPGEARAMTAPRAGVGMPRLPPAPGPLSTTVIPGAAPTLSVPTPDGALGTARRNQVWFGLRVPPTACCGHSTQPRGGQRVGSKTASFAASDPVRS
compound,measurement,setting,value
CO[C@H]1CC2CC[C@@H](C)[C@@](O)(O2)C(=O)C(=O)N2CCCC[C@H]2C(=O)OC([C@H](C)C[C@@H]2CC[C@@H](O)[C@H](OC)C2)CC(=O)[C@H](C)/C=C(\C)[C@@H](O)[C@@H](OC)C(=O)[C@H](C)C[C@H](C)/C=C/C=C/C=C/1C (some centres not stated),residual activity,[1],113%
same,residual activity,[2],104%
same,residual activity,[3],110%
same,residual activity,[4],98.2%
same,residual activity,[5],91.1%
same,residual activity,[6],105%
same,residual activity,[7],102%
same,residual activity,[8],102%
same,residual activity,[9],88%
same,residual activity,[10],104%
same,residual activity,[11],97.8%
same,residual activity,[12],107%
same,residual activity,[13],89.4%
same,residual activity,[14],97.1%
same,residual activity,[15],103%
same,residual activity,[16],89.7%
same,residual activity,[17],95.4%
same,residual activity,[18],101%
same,residual activity,[19],96%
same,residual activity,[20],102%
same,residual activity,[21],96.6%
same,residual activity,[22],99.1%
same,residual activity,[23],95.6%
same,residual activity,[24],94.8%
same,residual activity,[25],103%
same,residual activity,[26],106%
same,residual activity,[27],136%
same,residual activity,[28],102%
same,residual activity,[29],92.7%
same,residual activity,[30],96.3%
same,residual activity,[31],95.9%
same,residual activity,[32],99.2%
same,residual activity,[33],99.4%
same,residual activity,[34],96.1%
same,residual activity,[35],109%
same,residual activity,[36],101%
same,residual activity,[37],96.1%
same,residual activity,[38],102%
same,residual activity,[39],89.8%
same,residual activity,[40],93.3%
same,residual activity,[41],99.2%
same,residual activity,[42],121%
